{"source": "PubChem BioAssay (NCI)", "assay_in_all_cases": "inhibition of tumour cell growth, NCI panel, 48 h", "key": {"[1]": {"tested_on": "786-0 renal"}, "[2]": {"tested_on": "RPMI-8226 leukemia"}, "[3]": {"tested_on": "HCT-15 colon"}, "[4]": {"tested_on": "SK-MEL-5 melanoma"}, "[5]": {"tested_on": "COLO 205 colon"}, "[6]": {"tested_on": "SN12C renal"}, "[7]": {"tested_on": "MALME-3M melanoma"}, "[8]": {"tested_on": "SF-268 CNS"}}, "note": "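Cultured in 96-well plates, cells were exposed to test compound for 48 hours across five concentrations. The concentration for 50% growth inhibition is given as GI50. At the TGI there is no net growth.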"}
{"molecule": "CN[C@@H]1C[C@H]2O[C@@](C)([C@@H]1OC)n1c3ccccc3c3c4c(c5c6ccccc6n2c5c31)C(=O)N[C@H]4O", "values": [{"measurement": "TGI", "setting": "[1]", "value": 203, "unit": "nM"}, {"measurement": "GI50", "setting": "[2]", "value": 186, "unit": "nM"}, {"measurement": "TGI", "setting": "[2]", "value": 1490, "unit": "nM"}, {"measurement": "GI50", "setting": "[3]", "value": 157, "unit": "nM"}, {"measurement": "TGI", "setting": "[3]", "value": "> 3310", "unit": "nM"}, {"measurement": "GI50", "setting": "[4]", "value": 102, "unit": "nM"}, {"measurement": "TGI", "setting": "[4]", "value": 1390, "unit": "nM"}, {"measurement": "GI50", "setting": "[5]", "value": 31.1, "unit": "nM"}, {"measurement": "TGI", "setting": "[5]", "value": 267, "unit": "nM"}, {"measurement": "TGI", "setting": "[6]", "value": 1700, "unit": "nM"}, {"measurement": "GI50", "setting": "[7]", "value": 21.7, "unit": "nM"}, {"measurement": "TGI", "setting": "[7]", "value": 486, "unit": "nM"}, {"measurement": "GI50", "setting": "[8]", "value": 24, "unit": "nM"}, {"measurement": "TGI", "setting": "[8]", "value": 2310, "unit": "nM"}]}
{"molecule": "COc1ccc2c3c(c4ccccc4cc13)C(=O)N(CCN(C)CCN)C2=O", "values": [{"measurement": "GI50", "setting": "[1]", "value": 38.8, "unit": "nM"}, {"measurement": "TGI", "setting": "[1]", "value": 700, "unit": "nM"}, {"measurement": "GI50", "setting": "[2]", "value": 166, "unit": "nM"}, {"measurement": "TGI", "setting": "[2]", "value": 750, "unit": "nM"}, {"measurement": "GI50", "setting": "[3]", "value": 45.3, "unit": "nM"}, {"measurement": "TGI", "setting": "[3]", "value": 1010, "unit": "nM"}, {"measurement": "GI50", "setting": "[4]", "value": 186, "unit": "nM"}, {"measurement": "TGI", "setting": "[4]", "value": 1280, "unit": "nM"}, {"measurement": "GI50", "setting": "[5]", "value": 84.3, "unit": "nM"}, {"measurement": "TGI", "setting": "[5]", "value": 1270, "unit": "nM"}, {"measurement": "GI50", "setting": "[6]", "value": 56.2, "unit": "nM"}, {"measurement": "TGI", "setting": "[6]", "value": 911, "unit": "nM"}, {"measurement": "GI50", "setting": "[7]", "value": 79.9, "unit": "nM"}, {"measurement": "TGI", "setting": "[7]", "value": 1270, "unit": "nM"}, {"measurement": "GI50", "setting": "[8]", "value": 106, "unit": "nM"}, {"measurement": "TGI", "setting": "[8]", "value": 1490, "unit": "nM"}]}
{"molecule": "CSc1n(Cc2ccc3ccccc3c2)c(C)c[n+]1Cc1ccc2ccccc2c1", "values": [{"measurement": "GI50", "setting": "[1]", "value": 1530, "unit": "nM"}, {"measurement": "TGI", "setting": "[1]", "value": 2970, "unit": "nM"}, {"measurement": "GI50", "setting": "[2]", "value": 287, "unit": "nM"}, {"measurement": "TGI", "setting": "[2]", "value": 1360, "unit": "nM"}, {"measurement": "GI50", "setting": "[3]", "value": 2120, "unit": "nM"}, {"measurement": "TGI", "setting": "[3]", "value": 4750, "unit": "nM"}, {"measurement": "GI50", "setting": "[4]", "value": 389, "unit": "nM"}, {"measurement": "TGI", "setting": "[4]", "value": 1320, "unit": "nM"}, {"measurement": "GI50", "setting": "[5]", "value": 352, "unit": "nM"}, {"measurement": "TGI", "setting": "[5]", "value": 1340, "unit": "nM"}, {"measurement": "GI50", "setting": "[6]", "value": 523, "unit": "nM"}, {"measurement": "TGI", "setting": "[6]", "value": 1870, "unit": "nM"}, {"measurement": "GI50", "setting": "[7]", "value": 472, "unit": "nM"}, {"measurement": "TGI", "setting": "[7]", "value": 1730, "unit": "nM"}, {"measurement": "GI50", "setting": "[8]", "value": 690, "unit": "nM"}, {"measurement": "TGI", "setting": "[8]", "value": 2130, "unit": "nM"}]}
{"molecule": "COc1ccc2c(c1)CCc1[nH]nc(-c3cc(OC)c(OC)c(OC)c3)c1-2", "values": [{"measurement": "GI50", "setting": "[1]", "value": "< 10", "unit": "nM"}, {"measurement": "TGI", "setting": "[1]", "value": 11500, "unit": "nM"}, {"measurement": "GI50", "setting": "[3]", "value": "< 10", "unit": "nM"}, {"measurement": "TGI", "setting": "[3]", "value": 11800, "unit": "nM"}, {"measurement": "GI50", "setting": "[4]", "value": "< 10", "unit": "nM"}, {"measurement": "TGI", "setting": "[4]", "value": "< 10", "unit": "nM"}, {"measurement": "GI50", "setting": "[5]", "value": "< 10", "unit": "nM"}, {"measurement": "TGI", "setting": "[5]", "value": "< 10", "unit": "nM"}, {"measurement": "GI50", "setting": "[6]", "value": "< 10", "unit": "nM"}, {"measurement": "TGI", "setting": "[6]", "value": 22000, "unit": "nM"}, {"measurement": "GI50", "setting": "[7]", "value": "< 10", "unit": "nM"}, {"measurement": "TGI", "setting": "[7]", "value": 33900, "unit": "nM"}, {"measurement": "GI50", "setting": "[8]", "value": "< 10", "unit": "nM"}, {"measurement": "TGI", "setting": "[8]", "value": 26800, "unit": "nM"}]}
{"molecule": "COc1ccc2nc(NCN3C(=O)c4ccccc4C3=O)sc2c1", "values": [{"measurement": "TGI", "setting": "[1]", "value": "> 100000", "unit": "nM"}, {"measurement": "TGI", "setting": "[2]", "value": "> 100000", "unit": "nM"}, {"measurement": "TGI", "setting": "[3]", "value": "> 100000", "unit": "nM"}, {"measurement": "TGI", "setting": "[4]", "value": "> 100000", "unit": "nM"}, {"measurement": "TGI", "setting": "[5]", "value": "> 100000", "unit": "nM"}, {"measurement": "TGI", "setting": "[6]", "value": "> 100000", "unit": "nM"}, {"measurement": "TGI", "setting": "[7]", "value": "> 100000", "unit": "nM"}, {"measurement": "TGI", "setting": "[8]", "value": "> 100000", "unit": "nM"}]}
{"molecule": "Cc1cc([N+](=O)[O-])ccc1NS(=O)(=O)c1cc(Cl)ccc1Cl", "values": [{"measurement": "GI50", "setting": "[1]", "value": 3030, "unit": "nM"}, {"measurement": "TGI", "setting": "[1]", "value": 22600, "unit": "nM"}, {"measurement": "GI50", "setting": "[2]", "value": 1900, "unit": "nM"}, {"measurement": "TGI", "setting": "[2]", "value": 6880, "unit": "nM"}, {"measurement": "GI50", "setting": "[3]", "value": 2920, "unit": "nM"}, {"measurement": "TGI", "setting": "[3]", "value": 13100, "unit": "nM"}, {"measurement": "GI50", "setting": "[4]", "value": 1540, "unit": "nM"}, {"measurement": "TGI", "setting": "[4]", "value": 3830, "unit": "nM"}, {"measurement": "GI50", "setting": "[5]", "value": 3230, "unit": "nM"}, {"measurement": "TGI", "setting": "[5]", "value": 12300, "unit": "nM"}, {"measurement": "GI50", "setting": "[6]", "value": 2870, "unit": "nM"}, {"measurement": "TGI", "setting": "[6]", "value": "> 100000", "unit": "nM"}, {"measurement": "GI50", "setting": "[7]", "value": 2330, "unit": "nM"}, {"measurement": "TGI", "setting": "[7]", "value": 6830, "unit": "nM"}, {"measurement": "GI50", "setting": "[8]", "value": 4490, "unit": "nM"}, {"measurement": "TGI", "setting": "[8]", "value": "> 100000", "unit": "nM"}]}
{"molecule": "CC(=O)C1COC(O)C1C", "note": "(stereo not given)", "values": [{"measurement": "TGI", "setting": "[1]", "value": 49800, "unit": "nM"}, {"measurement": "TGI", "setting": "[2]", "value": 60000, "unit": "nM"}, {"measurement": "TGI", "setting": "[3]", "value": 44400, "unit": "nM"}, {"measurement": "TGI", "setting": "[4]", "value": 29700, "unit": "nM"}, {"measurement": "TGI", "setting": "[5]", "value": 34500, "unit": "nM"}, {"measurement": "TGI", "setting": "[6]", "value": 50600, "unit": "nM"}, {"measurement": "TGI", "setting": "[8]", "value": 49900, "unit": "nM"}]}
{"molecule": "CCOc1ccc2nc(-c3cccc(OCC(=O)NC(C)C)c3)nc(Nc3ccc(-c4cn[nH]c4)cc3)c2c1", "values": [{"measurement": "GI50", "setting": "[1]", "value": 553, "unit": "nM"}, {"measurement": "TGI", "setting": "[1]", "value": 2630, "unit": "nM"}, {"measurement": "GI50", "setting": "[2]", "value": 232, "unit": "nM"}, {"measurement": "TGI", "setting": "[2]", "value": 4900, "unit": "nM"}, {"measurement": "GI50", "setting": "[3]", "value": 834, "unit": "nM"}, {"measurement": "TGI", "setting": "[3]", "value": 3690, "unit": "nM"}, {"measurement": "GI50", "setting": "[4]", "value": 1170, "unit": "nM"}, {"measurement": "TGI", "setting": "[4]", "value": 2580, "unit": "nM"}, {"measurement": "GI50", "setting": "[5]", "value": 686, "unit": "nM"}, {"measurement": "TGI", "setting": "[5]", "value": 5400, "unit": "nM"}, {"measurement": "GI50", "setting": "[6]", "value": 1060, "unit": "nM"}, {"measurement": "TGI", "setting": "[6]", "value": 3760, "unit": "nM"}, {"measurement": "GI50", "setting": "[7]", "value": 324, "unit": "nM"}, {"measurement": "TGI", "setting": "[7]", "value": 1790, "unit": "nM"}, {"measurement": "GI50", "setting": "[8]", "value": 1350, "unit": "nM"}, {"measurement": "TGI", "setting": "[8]", "value": 7000, "unit": "nM"}]}
{"molecule": "Cc1cc(Oc2cnc(=O)[nH]c2)cs1", "values": [{"measurement": "TGI", "setting": "[1]", "value": "> 100000", "unit": "nM"}, {"measurement": "TGI", "setting": "[2]", "value": "> 100000", "unit": "nM"}, {"measurement": "TGI", "setting": "[3]", "value": "> 100000", "unit": "nM"}, {"measurement": "TGI", "setting": "[4]", "value": "> 100000", "unit": "nM"}, {"measurement": "TGI", "setting": "[5]", "value": "> 100000", "unit": "nM"}, {"measurement": "TGI", "setting": "[6]", "value": "> 100000", "unit": "nM"}, {"measurement": "TGI", "setting": "[7]", "value": "> 100000", "unit": "nM"}, {"measurement": "TGI", "setting": "[8]", "value": "> 100000", "unit": "nM"}]}
